Some test systems named below: 786-0 renal; BT-549 breast; CCRF-CEM leukemia; EKVX NSCLC; HCC-2998 colon; HL-60(TB) leukemia; HOP-62 NSCLC; HT29 colon; KM12 colon; LOX IMVI melanoma; MCF7 breast; MDA-MB-435; NCI-H460 lung; RPMI-8226 leukemia; SK-MEL-28 melanoma; SK-MEL-5 melanoma; SN12C renal; SNB-75 CNS; SR leukemia; UACC-257 melanoma.
Holding throughout (test): NCI tumour cell line growth inhibition, 48 h

The structures appear in SMILES notation.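 How tested: cells in 96-well plates exposed to compound for 48 hours at five concentrations. TGI: concentration producing complete growth inhibition.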

In PubChem BioAssay (NCI) one finds TGI data, which are given here for seven molecules.

With `CCSc1nc(N2CCOCC2)c2cn[nH]c2n1`, the TGI with 786-0 renal, with BT-549 breast, in the experiment with CCRF-CEM leukemia, in the experiment on EKVX NSCLC, in the experiment with HCC-2998 colon and with HL-60(TB) leukemia was more than 100 µM in each case. In addition, the TGI with HOP-62 NSCLC, with HT29 colon, with KM12 colon, in the experiment on LOX IMVI melanoma, with MCF7 breast and in the experiment on MDA-MB-435 was more than 100 µM in each case. Also, the TGI with NCI-H460 lung, in the experiment with RPMI-8226 leukemia, in the experiment with SK-MEL-28 melanoma, in the experiment with SK-MEL-5 melanoma, with SN12C renal and in the experiment on SNB-75 CNS was more than 100 µM throughout. Besides, the TGI with SR leukemia and with UACC-257 melanoma was more than 100 µM each time.
For `O=C(CNc1ccc(Cl)cc1)Nn1c(-c2ccccc2)nc2ccccc2c1=O`, the TGI was determined as 10.2 µM with 786-0 renal; 6.29 µM with BT-549 breast; 9.48 µM in the experiment with CCRF-CEM leukemia; 35.7 µM in the experiment on EKVX NSCLC; 23.5 µM in the experiment on HCC-2998 colon; 32.1 µM in the experiment with HL-60(TB) leukemia. For the same molecule, the TGI came to 19.9 µM in the experiment with HOP-62 NSCLC; 21.1 µM with HT29 colon; 24.5 µM with KM12 colon; 4.12 µM in the experiment on LOX IMVI melanoma; 8.06 µM in the experiment on MCF7 breast; 23.2 µM with MDA-MB-435. Moreover, the TGI with NCI-H460 lung was 23.4 µM; in the experiment with RPMI-8226 leukemia, 45.2 µM; in the experiment with SK-MEL-28 melanoma it was 19.8 µM; in the experiment with SK-MEL-5 melanoma, 7.09 µM; in the experiment on SN12C renal, 20.9 µM; with SNB-75 CNS, 24.1 µM. In addition, the values for the TGI with SR leukemia and in the experiment with UACC-257 melanoma were more than 52.1 µM and 33.2 µM, respectively.
With `O=c1[nH]nc(-c2cccc(Br)c2)[nH]1`, the TGI in the experiment with 786-0 renal was more than 100 µM; in the experiment on BT-549 breast it was more than 100 µM; in the experiment with CCRF-CEM leukemia, more than 100 µM; in the experiment on EKVX NSCLC it was 79.1 µM; with HCC-2998 colon, more than 100 µM; with HL-60(TB) leukemia it was more than 100 µM. The TGI in the experiment on HOP-62 NSCLC, in the experiment with HT29 colon, in the experiment on KM12 colon, with LOX IMVI melanoma, with MCF7 breast and with MDA-MB-435 was more than 100 µM each time. In addition, the TGI in the experiment on NCI-H460 lung, in the experiment on RPMI-8226 leukemia, in the experiment with SK-MEL-28 melanoma, with SK-MEL-5 melanoma, in the experiment on SN12C renal and in the experiment on SNB-75 CNS was more than 100 µM throughout. The TGI in the experiment on SR leukemia and with UACC-257 melanoma was more than 100 µM each time.
Consider `CC(=O)O[C@@H]1C=C(C)[C@H](CBr)O[C@@]2(C)CC[C@H](Br)C(C)(C)[C@H]12`, for which the TGI with 786-0 renal, in the experiment with BT-549 breast, in the experiment on CCRF-CEM leukemia, in the experiment with EKVX NSCLC, with HCC-2998 colon and in the experiment on HL-60(TB) leukemia was more than 100 µM each time. The TGI in the experiment on HOP-62 NSCLC, with HT29 colon, with KM12 colon, in the experiment with LOX IMVI melanoma, in the experiment on MCF7 breast and in the experiment with MDA-MB-435 was more than 100 µM in each case. The TGI with NCI-H460 lung, in the experiment on RPMI-8226 leukemia, with SK-MEL-28 melanoma, with SK-MEL-5 melanoma, in the experiment on SN12C renal and in the experiment on SNB-75 CNS was more than 100 µM in each case. The TGI in the experiment on SR leukemia and in the experiment with UACC-257 melanoma was more than 100 µM in each case.
Take `Cc1cccc2c(N)c3cccc(C(=O)NCCCNCCN)c3nc12`: the TGI is 11.4 µM in the experiment on 786-0 renal; 28 µM in the experiment on BT-549 breast; more than 70.4 µM with CCRF-CEM leukemia; 33.2 µM in the experiment with EKVX NSCLC; 19.6 µM with HCC-2998 colon; more than 64.3 µM in the experiment on HL-60(TB) leukemia. The TGI in the experiment on HOP-62 NSCLC came out at 18.3 µM; in the experiment on HT29 colon, 16.3 µM; with KM12 colon, 19.5 µM; in the experiment with LOX IMVI melanoma, 25.2 µM; in the experiment on MCF7 breast, 11 µM; with MDA-MB-435, 29.1 µM. The TGI in the experiment on NCI-H460 lung worked out at 11.6 µM; in the experiment with RPMI-8226 leukemia, 37.3 µM; in the experiment with SK-MEL-28 melanoma it was 29.4 µM; in the experiment with SK-MEL-5 melanoma it was 22.8 µM; in the experiment on SN12C renal it was 2.25 µM; with SNB-75 CNS, 8.1 µM. The TGI in the experiment on SR leukemia is more than 82.9 µM; with UACC-257 melanoma it was 31.1 µM.
With `Nc1nc(Cl)cc(NCC2(CO)CC(OCc3ccccc3)C2)n1` (stereo not given), the TGI with 786-0 renal, with BT-549 breast, in the experiment with CCRF-CEM leukemia, in the experiment on EKVX NSCLC, in the experiment with HCC-2998 colon and in the experiment with HL-60(TB) leukemia was more than 100 µM each time. For the same molecule, the TGI with HOP-62 NSCLC, with HT29 colon, with KM12 colon, in the experiment with LOX IMVI melanoma, with MCF7 breast and in the experiment with MDA-MB-435 was more than 100 µM in each case. Moreover, the TGI in the experiment on NCI-H460 lung was more than 100 µM; in the experiment on RPMI-8226 leukemia it was more than 100 µM; with SK-MEL-28 melanoma, more than 100 µM; in the experiment with SK-MEL-5 melanoma it was more than 100 µM; in the experiment with SN12C renal it was more than 100 µM; in the experiment on SNB-75 CNS it was 85.2 µM. For the same molecule, the TGI with SR leukemia and in the experiment on UACC-257 melanoma was more than 100 µM throughout.
`Nc1ccc(C(=O)Nn2c(-c3ccccc3)nc3ccccc3c2=O)cc1`: the TGI in the experiment on 786-0 renal, in the experiment on BT-549 breast, in the experiment with CCRF-CEM leukemia, with EKVX NSCLC, in the experiment on HCC-2998 colon and with HL-60(TB) leukemia was more than 100 µM in each case. Also, the TGI in the experiment with HOP-62 NSCLC, in the experiment on HT29 colon, with KM12 colon, with LOX IMVI melanoma, with MCF7 breast and in the experiment with MDA-MB-435 was more than 100 µM each time. For the same molecule, the TGI in the experiment on NCI-H460 lung, in the experiment on RPMI-8226 leukemia, in the experiment with SK-MEL-28 melanoma, with SK-MEL-5 melanoma, in the experiment on SN12C renal and in the experiment on SNB-75 CNS was more than 100 µM in each case. Besides, the TGI with SR leukemia and in the experiment on UACC-257 melanoma was more than 100 µM throughout.
